Test results from patent US9745357B2, “Peptides used for treating cancers and, in particular, chronic lymphoid leukaemia” (Centre National de la Recherche Scientifique, priority 2009, dated 2017).

Experiments:
[1] = tested on: B lymphocytes from patients suffering from chronic lymphoid leukemia (CLL); conditions: for cell effect CLL 40 (survival): 4 hours of culture, cells not labeled with annexin or propidium iodide; for effect of the peptide on cell mortality, in words (relative to A1 WT IRS): 40 μM, 4 hours, FIG. 9
Procedure: Peripheral blood B lymphocytes taken from patients suffering from CLL and then purified on a Ficoll cushion and placed in culture are incubated in the presence of […] of the peptides described for FIG. 2. The percentage cell survival after 4 hours (gray column) or 24 hours (white column) of culture corresponds to the percentage of cells labeled neither with annexin nor with propidium iodide, evaluated by flow cytometry.
The CLL B lymphocytes were obtained from peripheral blood of 18 different patients suffering from chronic lymphoid leukemia. […] The samples were taken in the Brest hospital center, in the hematology department. The blood samples were taken after informing the patients and obtaining their informed consent.
The lymphocytes, mononuclear cells, were isolated from the heparinized peripheral blood samples by Ficoll-Hypaque (LSM 1077 lymphocyte, euro-bio) centrifugation. The red blood cells were lyzed by incubation for 10 min in VersaLyse Lysing Solution (Beckman Coulter). The mononuclear cells are obtained after 2 washes in culture medium (RPMI1640, Gibco BRL).
(§1) The cells were cultured in a culture medium composed either of RPMI 1640 (B lymphocytes) or of DMEM (COS7, HCT116, HGT1, 293, HeLa) containing 10% of FCS (fetal calf serum, 1% of penicillin-streptomycin and 1% of glutamine, Gibco BRL). The cells are distributed in a 24-well plate and cultured at 37° C. in a humid atmosphere under 5% CO2.
(§2) 400 μl of cell suspension (1×10^6 cells/ml) per well were treated for 4 h or 24 h with various concentrations of peptides. The test for activity of the peptides in the presence of emetine (FIG. 6) was carried out by preincubating the cells with 100 μM of emetine for one hour before the addition of peptide.
(§3) After the cells have been washed with PBS, they were analyzed using the Annexin V-FITC IP system according to the supplier's recommendations (Beckman Coulter).
The cells taken from patients suffering from chronic lymphoid leukemia were purified on a Ficoll cushion. […] The cells were placed in culture in RPMI medium in the presence of 10% FCS (fetal calf serum). The peptides were added directly to the culture medium. These peptides comprise the IRS sequence (the amino acid sequence of which is RYIRS) which is known to allow the penetration of peptides into B lymphocytes in culture (Dong et al., 2005). […] The cells which survive the treatment are those which are labeled neither with annexin nor with propidium iodide.

[2] = tested on: Jok cells (cell line derived from B lymphocytes); experiment: Cell survival of Jok cells, annexin/propidium iodide flow cytometry; type: cell-based, human; conditions: for cell effect Jok 20 (survival): 20 μM peptide; for cell effect Jok 20 (survival) / cell effect Jok 40 (survival): 4 hours of culture, cells not labeled with annexin or propidium iodide; for effect of the peptide on cell mortality, in words (relative to A1 WT IRS): 4 hours, FIG. 9; for cell effect Jok 40 (survival): 40 μM peptide
Procedure: The cells are treated as indicated for FIG. 7, with the CLL cells, control T lymphocytes and Jok lymphocytes, which are incubated with the A1 WT IRS peptide and derivatives thereof described in table 1. The Jok cells were incubated either with 20 μM (JOK 20) or with 40 μM (JOK 40) of each of the peptides. In the interests of simplifying the legend, the A1 WT IRS peptide is referred to as “WT”. Likewise, the derivatives thereof are referred to by the name of the mutations (A1 K3I IRS is referred to as “K3I”, for example).
as §1, §2, §3
The peptides were tested on B lymphocytes from patients suffering from chronic lymphoid leukemia, control T lymphocytes, or Jok cells (cell line derived from B lymphocytes). The experiment was repeated three times for each type of cell tested.

[3] = tested on: control T lymphocytes (patients suffering from hemochromatosis); experiment: Cell survival of control T lymphocytes, annexin/propidium iodide flow cytometry; type: cell-based, human; conditions: 40 μM peptide, 4 hours of culture, cells not labeled with annexin or propidium iodide
Procedure: FIG. 7: Activity of the A1WT peptide on cells of lymphocytic, lymphoid, gastric, colonic or renal origin The cells are prepared and placed in culture (see Materials and Methods) and then incubated for 4 H with the A1WT or A1 YALA peptide. The percentage cell survival corresponds to the percentage of cells labeled neither with annexin nor with propidium iodide, evaluated by flow cytometry. The names of the pathological conditions from which the patients from whom the samples are taken are suffering are indicated under the figure. The control T (L.T.) and B (L.B.) lymphocytes are taken from patients suffering from a disease not related to a lymphocytic pathological condition (hemochromatosis).
The control B lymphocytes and T lymphocytes originate from peripheral blood samples from patients suffering from hemochromatosis, provided by the CTS transfusion center in Brest. The B and T lymphocytes were isolated using the Rosett-Sep kit (Stemcell Technologies) according to the supplier's recommendations.
as §1, §2, §3

[4] = tested on: control T lymphocytes (patients suffering from hemochromatosis); experiment: as above; type: cell-based, human; conditions: 40 μM, 4 hours; FIG. 9
[5] = concentration not given (20 or 40 μM)

Compound | cell survival with emetine alone ([1]; 100 μM emetine, after 4 H of incubation (from 97%), FIG. 6) [%] | cell effect Jok 20 (survival) [2] | effect of the peptide on cell mortality, in words (relative to A1 WT IRS) ([2]; 20 μM) | cell effect Jok 40 (survival) [2] | effect of the peptide on cell mortality, in words (relative to A1 WT IRS) ([2]; 40 μM) | cell effect LT 40 (survival) [3] | effect of the peptide on cell mortality, in words (relative to A1 WT IRS) [4] | cell effect CLL 40 (survival) ([1]; 40 μM peptide) | effect of the peptide on cell mortality, in words (relative to A1 WT IRS) [1] | effect on percentage cell survival ([1]; 40 μM peptide, 4 H and 24 H, FIG. 3) | action of the peptide on cell survival, in words, cell type not given ([1]; Example 6 (CLL cells, control T lymphocytes, Jok cells)) | effect of the peptide on cell mortality, in words (relative to A1 WT IRS) [2, 5]
CC[C@H]1CN2CCc3cc(OC)c(OC)cc3[C@@H]2C[C@@H]1C[C@H]1NCCc2cc(OC)c(OC)cc21 [emetine, reference compound] | 82 |  |  |  |  |  |  |  |  |  |  | 
GGKYGRDFLLRFRYIRS [A1 R1, 2G IRS] |  | − (−: survival >50%) | abolishes the effect | +/− (+/−: survival between 25 and 50%) | only partially decreased | − (−: survival >50%) | abolishes the effect | − (−: survival >50%) | abolishes the effect |  |  | 
KKKYGRDFLLRFRYIRS [A1 R1, 2K IRS] |  | +/− (+/−: survival between 25 and 50%) | decreases the effect | + (+: survival <25%) | the same effect as the A1 WT IRS peptide | +/− (+/−: survival between 25 and 50%) | decreases the effect | + (+: survival <25%) | decreases the effect |  |  | 
KYGRDFLLRFRYIRS [A1 del2 IRS] |  | +/− (+/−: survival between 25 and 50%) | loss of effect | + (+: survival <25%) | considerable mortality | − (−: survival >50%) | loss of effect | − (−: survival >50%) | loss of effect |  |  | 
RIIYDRHFLLNMRYIRS [BPSg WT IRS, reference compound] |  |  |  |  |  |  |  |  |  | the percentage survival did not decrease |  | 
RIKYDRKFLLDRRYIRS [BP2 I3K IRS, reference compound] |  | − (−: survival >50%) |  | − (−: survival >50%) |  | − (−: survival >50%) |  | − (−: survival >50%) |  |  | does not confer a better efficacy | 
RRIYGRDFLLRFRYIRS [A1 K3I IRS] |  | +/− (+/−: survival between 25 and 50%) | partially | + (+: survival <25%) |  |  |  | − (−: survival >50%) | loss of effect |  |  | 
RRKYARDFLLRFRYIRS [A1 G5A-IRS] |  | + (+: survival <25%) |  | + (+: survival <25%) |  | + (+: survival <25%) | slightly increases the effect | + (+: survival <25%) | slightly increases the effect |  |  | slightly increases the effect
RRKYGHDFLLRFRYIRS [A1 R6H IRS] |  | + (+: survival <25%) |  | + (+: survival <25%) |  | +/− (+/−: survival between 25 and 50%) | abolishes the effect | +/− (+/−: survival between 25 and 50%) | abolishes the effect |  |  | the effect is potentiated
RRKYGKDFLLRFRYIRS [A1 R6K IRS] |  | +/− (+/−: survival between 25 and 50%) |  | + (+: survival <25%) |  | +/− (+/−: survival between 25 and 50%) | partially decreases the action | + (+: survival <25%) | partially decreases the action |  |  | partially decreases the action
RRKYGRAFLLFRFYIRS [A1 D7A IRS] |  | + (+: survival <25%) |  | + (+: survival <25%) |  | + (+: survival <25%) | does not modify the action | + (+: survival <25%) | does not modify the action |  |  | 
RRKYGRDFLLRKRYIRS [A1 F12K IRS] |  | − (−: survival >50%) |  | − (−: survival >50%) |  | − (−: survival >50%) | completely abolishes the action | − (−: survival >50%) | completely abolishes the action |  |  | completely abolishes the action
RRKYGRDFLLRWRYIRS [A1 F12W IRS] |  | + (+: survival <25%) |  | +/− (+/−: survival between 25 and 50%) |  | + (+: survival <25%) | does not modify the action | + (+: survival <25%) | does not modify the action |  |  | does not modify the action
RRKYGREFLLRFRYIRS [A1 D7E IRS] |  | + (+: survival <25%) |  | + (+: survival <25%) |  | + (+: survival <25%) | does not modify the action | + (+: survival <25%) | does not modify the action |  |  | its effect is potentiated
RRKYSRDFLLRFRYIRS [A1 G5S IRS] |  | + (+: survival <25%) |  | + (+: survival <25%) |  | + (+: survival <25%) | slightly increases the effect | + (+: survival <25%) | slightly increases the effect |  |  | slightly increases the effect
RRRYGRDFLLRFRYIRS [A1 K3R IRS] |  | + (+: survival <25%) |  | + (+: survival <25%) |  | + (+: survival <25%) | does not modify the effect | + (+: survival <25%) | does not modify the effect |  |  | does not modify the effect
